The values that follow come from patent publication US20170189366A1, “METHOD FOR TREATING DISORDERS RELATED TO COMPLEMENT ACTIVATION” (CASE WESTERN RESERVE UNIVERSITY, priority 2006, published 2017).

The test system of experiment [1] is C3b activation on RPE-43 cell line. Briefly: Alternative pathway-dependent amplification of complement activation on C3b-seeded RPE-43 cell line. It is filed as cell-based. Particulars: after addition of C3, factor B, factor D, factor H, read-out: inhibition of further C3b activation. The source says: FIGS. 1A-C are a series of graphs showing the ability of an amidine compound according to the present invention to inhibit alternative pathway-dependent amplification of C3 cleavage. In FIG. 1A, factor B, factor D, and C3 were mixed in the absence or presence of increasing concentrations of the amidine compound and generation of C3a was quantified by ELISA. In FIG. 1B, factor B, factor D, C3, and a limiting amount of factor H were mixed in the absence or presence of two doses of the amidine compound following initial deposition of C3b on Bruch's membrane via anti-CEP initiated classical pathway activation. In FIG. 1C, factor B, factor D, C3, and a limiting amount of factor H were mixed in the absence or presence of two doses of the amidine compound following initial deposition of C3b on the RPE-43 cell line by anti-class I monomorphic antibody; and To determine how effective FUT-175 is in preventing alternative pathway-dependent amplification of complement activation on Bruch's membrane and RPE cells, we seeded purified Bruch's membrane from an AMD patient and the RPE-43 cell line with C3b (as would occur with anti-CEP autoantibodies) by sensitization with anti-CEP and anti-HLA monomorphic monoclonal antibodies, respectively, followed by incubation with purified C1, C4, C2, and decay of C1 and C2. […]

The subject of experiment [2] is laser-induced choroidal neovascularization. As to the kind of experiment: Murine laser-induced CNV model. It counts as in vivo, mouse. The note with it: i.p. injection. The source says: FIGS. 2A-B are a series of flat mounts showing the effects on lesion size of the amidine compound in a laser-induced CNV mouse model.
As part of our exploration of different strategies for inhibiting complement activation intraocularly so as to arrive at what methodology could be most efficacious for treating AMD patients clinically, we utilized the standard murine CNV model and analyzed the effect of an i.p. injection of FUT-175. As shown diagrammatically in FIGS. 2A-B, the drug reduced lesion size by >80%.

In the case of `N=C(N)Nc1ccc(C(=O)Oc2ccc3cc(C(=N)N)ccc3c2)cc1` [FUT-175, 6-amidino-2-napthyl-4-guanidinobenzoate dimethanesulfonate], in experiment [1], the inhibition at 0.3 µM is approximately 50%. Moreover, the “reduction of lesion size” value in experiment [2] is given as more than 80%.
